Patent publication US8178535B2, “Substituted sulfonamide compounds having bradykinin 1 receptor activity and use thereof as medicaments” (Gruenenthal GmbH, priority 2008, dated 2012)

Columns and labels:
[1] = biological target: T1, human B1R receptor (hB1R) (Homo sapiens, UniProt P46663); experiment: FLIPR Ca2+ assay (Fluo-4) on CHO K1 cells stably transfected with the human B1R gene; type: cell-based; conditions: CHO-K1; test substance 10 μM; agonist Lys-Des-Arg9-bradykinin 0.5 nM; % inhibition compared to the maximum achievable inhibition
T1 construct: host or cells: CHO K1 cells
T1 sequence (P46663 1-353): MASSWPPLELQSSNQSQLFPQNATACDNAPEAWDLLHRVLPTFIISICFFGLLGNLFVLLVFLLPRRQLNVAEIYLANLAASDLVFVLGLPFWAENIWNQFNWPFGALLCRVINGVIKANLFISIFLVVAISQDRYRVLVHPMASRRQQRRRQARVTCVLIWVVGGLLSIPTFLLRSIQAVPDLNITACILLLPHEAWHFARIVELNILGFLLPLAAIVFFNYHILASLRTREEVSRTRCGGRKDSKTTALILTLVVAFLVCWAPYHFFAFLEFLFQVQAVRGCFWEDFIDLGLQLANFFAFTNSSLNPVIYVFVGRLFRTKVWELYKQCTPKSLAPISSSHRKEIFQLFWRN
Summary of the method: (§1)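 CHO K1 cells stably expressing human or rat B1R, Fluo-4 loaded, read by FLIPR (Ex 488/Em 540, peak fluorescence). Compound at 10 μM gives % activation vs agonist. After 10 min, agonist added (human: Lys-Des-Arg9-bradykinin 0.5 nM; rat: Des-Arg9-bradykinin 100 nM); % inhibition relative to maximal achievable inhibition.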

[2] = biological target: T2, B1R receptor of rats (rB1R) (Rattus norvegicus, UniProt P97583); experiment: FLIPR Ca2+ assay (Fluo-4) on CHO K1 cells stably transfected with the B1R gene of rats; type: cell-based; conditions: CHO-K1; test substance 10 μM; agonist Des-Arg9-bradykinin 100 nM; % inhibition compared to the maximum achievable inhibition
T2 construct: host or cells: CHO K1 cells
T2 sequence (P97583 1-337): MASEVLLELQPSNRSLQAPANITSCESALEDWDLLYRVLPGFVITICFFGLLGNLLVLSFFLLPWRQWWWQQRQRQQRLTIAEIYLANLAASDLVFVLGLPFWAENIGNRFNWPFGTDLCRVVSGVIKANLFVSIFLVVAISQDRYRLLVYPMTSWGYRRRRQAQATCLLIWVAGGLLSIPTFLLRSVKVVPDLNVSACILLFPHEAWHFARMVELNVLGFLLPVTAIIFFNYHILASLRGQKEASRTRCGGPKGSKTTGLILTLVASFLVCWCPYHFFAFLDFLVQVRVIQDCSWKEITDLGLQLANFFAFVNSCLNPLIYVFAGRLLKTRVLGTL
Summary of the method: as §1

Structure (SMILES)	inhibition at 10 µM [1] [%]	inhibition at 10 µM [2] [%]
COc1cc(C)c(S(=O)(=O)N2CCCCC2CCCC(=O)N2CCn3c(ccc3-c3ccncc3)C2)c(C)c1 (stereo not drawn) [(110), 4-(1-(4-Methoxy-2,6-dimethylphenylsulfonyl)piperidin-2-yl)-1-(6-(pyridin-4-yl)-3,4-dihydropyrrolo[1,2-a]pyrazin-2(1H)-yl)butan-1-one]	84	101
COc1cc(C)c(S(=O)(=O)N2CCCCC2COCC(=O)N2CCn3cnnc3C2)c(C)c1 (stereo not drawn) [(1), 1-(5,6-dihydro-[1,2,4]triazolo[4,3-a]pyrazin-7(8H)-yl)-2-((1-(4-methoxy-2,6-dimethylphenylsulfonyl)piperidin-2-yl)methoxy)ethanone]	56	100
O=C(CC1CCCCN1S(=O)(=O)c1cccc(C(F)(F)F)c1)N1CCn2c(CCc3cccnc3)ccc2C1 (stereo not drawn) [(98), 1-(6-(2-(Pyridin-3-yl)ethyl)-3,4-dihydropyrrolo[1,2-a]pyrazin-2(1H)-yl)-2-(1-(3-(trifluoromethyl)phenylsulfonyl)piperidin-2-yl)ethanone]	90	90
COc1cc(C)c(S(=O)(=O)N2CCCCC2COCC(=O)N2CCn3c(ccc3-c3cccnc3)C2)c(C)c1 (stereo not drawn) [(89), 2-((1-(4-Methoxy-2,6-dimethylphenylsulfonyl)piperidin-2-yl)methoxy)-1-(6-(pyridin-3-yl)-3,4-dihydropyrrolo[1,2-a]pyrazin-2(1H)-yl)ethanone]	99	96
COc1cc(C)c(S(=O)(=O)N2CCCCC2CCC(=O)N2CCn3cc(Cc4ccncc4)nc3C2)c(C)c1 (stereo not drawn) [(121), 3-(1-(4-Methoxy-2,6-dimethylphenylsulfonyl)piperidin-2-yl)-1-(2-(pyridin-4-ylmethyl)-5,6-dihydroimidazo[1,2-a]pyrazin-7(8H)-yl)propan-1-one]	66	51
Cc1cc(C)c(S(=O)(=O)N2CCCCC2COCC(=O)N2CCn3c(CN(C)C)ccc3C2c2ccccc2)c(C)c1 (stereo not drawn) [(46), 1-(6-((dimethylamino)methyl)-1-phenyl-3,4-dihydropyrrolo[1,2-a]pyrazin-2(1H)-yl)-2-((1-(mesitylsulfonyl)piperidin-2-yl)methoxy)ethanone]	102	102
